# Source: patent US20230212222A1 (ANYGEN CO., LTD., priority 2020, published 2023)
# What was measured:
# GPR39 = target: T1, GPR39 (Homo sapiens, UniProt O43194); experiment: luciferase assay system (SRE luciferase reporter gene) for GPR39 in CV-1 cells
# T1 sequence (O43194 1-453): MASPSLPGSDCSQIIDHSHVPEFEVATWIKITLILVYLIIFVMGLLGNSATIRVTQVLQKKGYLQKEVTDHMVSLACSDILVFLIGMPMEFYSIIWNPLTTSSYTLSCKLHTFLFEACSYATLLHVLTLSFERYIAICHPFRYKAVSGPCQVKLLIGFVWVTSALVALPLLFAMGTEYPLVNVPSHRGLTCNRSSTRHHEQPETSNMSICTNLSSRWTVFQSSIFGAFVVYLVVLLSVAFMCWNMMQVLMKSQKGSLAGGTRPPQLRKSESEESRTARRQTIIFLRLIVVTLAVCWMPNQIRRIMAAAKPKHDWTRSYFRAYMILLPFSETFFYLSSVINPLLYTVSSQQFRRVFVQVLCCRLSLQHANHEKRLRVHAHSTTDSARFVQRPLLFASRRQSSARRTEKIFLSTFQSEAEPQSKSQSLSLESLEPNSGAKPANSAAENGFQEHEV
# Procedure: Specifically, the fibroblast cell line CV-1 (1×10^5 cells/ml, Korea Cell Line Bank) was cultured in a 96 well cell culture plate for 24 hours, and then treated with GPR39 inserted into adenovirus and SRE (serum response element) luciferase at 50 MOI (multiplicity of infection) and 25 MOI virus for 3 hours, respectively, and then cultured for 24 hours.
# [1] = test system: adipose tissue (white adipose tissue, WAT); experiment: lipolytic ability (secreted glycerol) in adipose tissue (WAT); format: cell-based, mice
# Procedure: In addition, lipolytic ability according to the HKFY-34 treatment by concentration (100 nM, 500 nM, […] (FIG. 84). When the signal of lipolysis is transmitted, lipid droplet glycerol and free fatty acid in adipocytes are secreted as final products and come out of the cell. At this time, the degree of lipolysis can be confirmed by quantifying the secreted glycerol. Isoproterenol, a positive control group, is an agonist of β-adrenergic receptors and mainly promotes lipolytic ability in adipocytes.
# NMU2 = target: T2, NMU2 (Homo sapiens, UniProt Q9GZQ4); experiment: luciferase assay system, ghrelin receptor family selectivity; format: cell-based; details: compared with intrinsic ligand, FIG. 74
# T2 construct: expressed in transfected cells
# T2 sequence (Q9GZQ4 whole entry, species assumed): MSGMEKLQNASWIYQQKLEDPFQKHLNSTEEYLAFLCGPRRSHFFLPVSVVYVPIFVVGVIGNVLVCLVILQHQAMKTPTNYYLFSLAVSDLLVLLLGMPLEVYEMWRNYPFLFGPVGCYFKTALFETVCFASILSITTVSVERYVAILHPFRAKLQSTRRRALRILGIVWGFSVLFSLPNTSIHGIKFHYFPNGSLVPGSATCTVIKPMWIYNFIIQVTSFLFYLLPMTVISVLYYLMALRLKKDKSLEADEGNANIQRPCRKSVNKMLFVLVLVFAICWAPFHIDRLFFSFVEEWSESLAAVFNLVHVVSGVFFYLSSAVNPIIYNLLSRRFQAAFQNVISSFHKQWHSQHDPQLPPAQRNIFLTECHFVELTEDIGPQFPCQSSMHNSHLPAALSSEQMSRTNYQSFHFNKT
# Procedure: (§1) In addition, through the activity test of the HKFY derivatives for similar receptors to GPR39, ghrelin receptor family (ghrelin receptor (GHSR), motilin receptor (MTLR), neurotensin receptor (NTSR1 & NTSR2), neuromedin U receptor (NMU1 & NMU2), TRH (thyrotropin releasing hormone) receptor (TRHR)), the selectivity and specificity for the GPR39 receptor were confirmed.
# (§2) Specifically, the degree of activity between the intrinsic ligand and HKFY-34 for each receptor was analyzed using a luciferase assay system (FIG. 74).
# GHSR = target: T3, GHSR (Homo sapiens, UniProt Q92847); experiment: as above; format: cell-based; details: compared with intrinsic ligand, FIG. 74
# T3 construct: expressed in transfected cells
# T3 sequence (Q92847 whole entry, species assumed): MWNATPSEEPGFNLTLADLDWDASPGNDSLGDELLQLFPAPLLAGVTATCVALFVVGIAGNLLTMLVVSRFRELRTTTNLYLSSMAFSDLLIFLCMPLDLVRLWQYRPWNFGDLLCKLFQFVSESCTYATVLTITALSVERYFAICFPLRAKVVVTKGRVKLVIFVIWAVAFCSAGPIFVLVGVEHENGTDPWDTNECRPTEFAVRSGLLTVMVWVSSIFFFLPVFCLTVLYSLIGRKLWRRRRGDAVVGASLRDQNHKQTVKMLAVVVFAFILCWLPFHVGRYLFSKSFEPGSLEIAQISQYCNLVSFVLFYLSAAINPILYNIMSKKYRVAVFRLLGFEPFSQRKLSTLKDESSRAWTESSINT
# Procedure: as §1, §2
# NTSR1 = target: T4, NTSR1 (Homo sapiens, UniProt P30989); experiment: as above; format: cell-based; details: compared with intrinsic ligand, FIG. 74
# T4 construct: expressed in transfected cells
# T4 sequence (P30989 whole entry, species assumed): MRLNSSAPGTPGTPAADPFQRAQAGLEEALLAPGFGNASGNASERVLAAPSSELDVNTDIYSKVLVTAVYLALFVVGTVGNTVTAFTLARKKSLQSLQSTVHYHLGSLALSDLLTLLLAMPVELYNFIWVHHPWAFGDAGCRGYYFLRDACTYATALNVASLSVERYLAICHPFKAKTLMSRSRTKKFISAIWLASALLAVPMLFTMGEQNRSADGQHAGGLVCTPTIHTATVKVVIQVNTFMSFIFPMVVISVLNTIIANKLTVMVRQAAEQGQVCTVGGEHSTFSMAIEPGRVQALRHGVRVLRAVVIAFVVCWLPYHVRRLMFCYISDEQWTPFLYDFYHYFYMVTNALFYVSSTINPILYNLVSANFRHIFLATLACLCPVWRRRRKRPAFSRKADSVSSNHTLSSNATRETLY
# Procedure: as §1, §2
# TRHR = target: T5, TRHR (Homo sapiens, UniProt P34981); experiment: as above; format: cell-based; details: compared with intrinsic ligand, FIG. 74
# T5 construct: expressed in transfected cells
# T5 sequence (P34981 whole entry, species assumed): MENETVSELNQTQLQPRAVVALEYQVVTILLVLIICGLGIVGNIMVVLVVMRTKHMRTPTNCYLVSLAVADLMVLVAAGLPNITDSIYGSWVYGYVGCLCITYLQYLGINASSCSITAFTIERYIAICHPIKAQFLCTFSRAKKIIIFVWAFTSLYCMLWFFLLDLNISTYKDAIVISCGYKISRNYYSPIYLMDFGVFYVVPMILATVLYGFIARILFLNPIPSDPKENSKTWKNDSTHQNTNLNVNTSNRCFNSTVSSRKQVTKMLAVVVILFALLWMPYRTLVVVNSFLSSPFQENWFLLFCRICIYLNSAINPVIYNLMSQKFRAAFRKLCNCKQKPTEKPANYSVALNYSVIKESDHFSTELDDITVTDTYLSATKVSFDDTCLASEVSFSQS
# Procedure: as §1, §2
# NMU1 = target: T6, NMU1 (Homo sapiens, UniProt Q9HB89); experiment: as above; format: cell-based; details: compared with intrinsic ligand, FIG. 74
# T6 construct: expressed in transfected cells
# T6 sequence (Q9HB89 whole entry): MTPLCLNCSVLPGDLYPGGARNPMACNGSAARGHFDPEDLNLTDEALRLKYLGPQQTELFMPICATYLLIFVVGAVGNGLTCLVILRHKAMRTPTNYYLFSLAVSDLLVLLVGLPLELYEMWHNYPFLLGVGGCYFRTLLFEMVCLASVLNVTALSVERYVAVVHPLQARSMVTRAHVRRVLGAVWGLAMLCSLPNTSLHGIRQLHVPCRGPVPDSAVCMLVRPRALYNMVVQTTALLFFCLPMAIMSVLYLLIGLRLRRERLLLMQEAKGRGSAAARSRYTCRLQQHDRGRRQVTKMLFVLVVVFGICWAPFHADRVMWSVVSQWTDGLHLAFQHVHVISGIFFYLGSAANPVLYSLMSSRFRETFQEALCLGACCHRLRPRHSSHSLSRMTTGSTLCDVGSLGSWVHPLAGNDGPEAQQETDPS
# Procedure: as §1, §2
# MTLR = target: T7, MTLR (Homo sapiens, UniProt O43193); experiment: as above; format: cell-based; details: compared with intrinsic ligand, FIG. 74
# T7 construct: expressed in transfected cells
# T7 sequence (O43193 whole entry, species assumed): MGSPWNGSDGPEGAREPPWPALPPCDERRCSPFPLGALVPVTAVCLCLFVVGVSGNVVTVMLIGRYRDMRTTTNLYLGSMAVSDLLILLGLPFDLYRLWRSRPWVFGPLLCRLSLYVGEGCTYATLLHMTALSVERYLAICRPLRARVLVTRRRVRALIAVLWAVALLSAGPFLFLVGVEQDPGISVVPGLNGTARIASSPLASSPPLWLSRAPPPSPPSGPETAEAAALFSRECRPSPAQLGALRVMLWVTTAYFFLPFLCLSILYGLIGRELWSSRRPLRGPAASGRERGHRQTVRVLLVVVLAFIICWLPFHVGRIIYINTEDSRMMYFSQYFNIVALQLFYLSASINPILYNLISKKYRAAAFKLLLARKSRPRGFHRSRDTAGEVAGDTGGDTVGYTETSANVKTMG
# Procedure: as §1, §2
# NTSR2 = target: T8, NTSR2 (Homo sapiens, UniProt O95665); experiment: as above; format: cell-based; details: compared with intrinsic ligand, FIG. 74
# T8 construct: expressed in transfected cells
# T8 sequence (O95665 whole entry, species assumed): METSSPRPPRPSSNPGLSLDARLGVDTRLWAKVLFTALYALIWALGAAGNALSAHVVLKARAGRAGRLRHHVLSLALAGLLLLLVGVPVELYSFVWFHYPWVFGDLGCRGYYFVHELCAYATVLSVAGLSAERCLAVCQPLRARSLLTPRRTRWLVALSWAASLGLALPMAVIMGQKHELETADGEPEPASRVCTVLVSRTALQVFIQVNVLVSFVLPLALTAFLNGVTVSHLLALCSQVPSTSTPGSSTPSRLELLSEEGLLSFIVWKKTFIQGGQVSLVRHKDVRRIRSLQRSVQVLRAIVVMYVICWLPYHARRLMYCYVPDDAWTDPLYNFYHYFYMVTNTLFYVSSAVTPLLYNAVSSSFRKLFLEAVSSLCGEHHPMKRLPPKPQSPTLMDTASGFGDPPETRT
# Procedure: as §1, §2
# [2] = test system: pERK and pPKA in WAT cells; experiment: pERK and pPKA expression by western blot in WAT; format: cell-based, mice; details: FIG. 86
# Procedure: In order to analyze the mechanism of lipolytic ability according to the HKFY derivative treatment in 3T3-L1 cells and WAT cells, the expression levels of pERK and pPKA were analyzed (FIGS. 85 and 86).
# Specifically, protein was purified from 3T3L-1 cells (Korea Cell Line Bank) and WAT (tissue culture using mice purchased from Central Lab. Animal Inc.) treated with the HKFY derivatives, and then each antibody for pERK, ERK, pPKA, and PKA expressed in mice was used, and the expression level of each protein due to the derivatives was measured through western blot.
# [3] = test system: HSL, ATGL and Perilipin A in WAT cells; experiment: mRNA expression of lipolysis signaling factors by RT-PCR in WAT; format: cell-based, mice; details: versus isoproterenol positive control
# Procedure: (§3) In addition, the mRNA expression levels of HSL (hormone-sensitive lipase), ATGL (adipose triglyceride lipase) and Perilipin A, which are important factors for lipolysis signaling according to HKFY-34 treatment, were analyzed through RT-PCR (FIG. 79). […] In addition, it was confirmed that the mRNA expression of all factors was enhanced due to GPR39 through GPR39 siRNA (FIGS. 81 to 83).
# db/db mice = experiment: drop in blood glucose level in mouse model of diabetes mellitus disease; format: in vivo
# Procedure: The drop in blood glucose level in a mouse model of diabetes mellitus disease according to the HKFY derivative treatment was analyzed (FIG. 92).
# Specifically, HKFY-34 was subcutaneously administered at a concentration of 0.5, 1, 5 and 10 mg/kg, respectively, to male db/db mice (5 to 7-week-old), which is a mouse model of diabetes mellitus disease. After 0, 1, 2, 4, 6, 8, 12, 18 and 24 hours, blood was collected from the tail of the mice, and the blood glucose was measured with a blood glucose meter (acc-check, Roche, Germany) to confirm the anti-diabetic effect.
# [4] = test system: HSL, ATGL and Perilipin A in 3T3-L1 cells; experiment: mRNA expression of lipolysis signaling factors by RT-PCR in 3T3-L1 cells; format: cell-based; details: versus isoproterenol positive control
# Procedure: as §3
# rat islet = experiment: glucose-dependent insulin secretion in isolated rat islets (rat insulin ELISA); format: cell-based; details: 1 nM to 100 μM, 2.8 mM or 28 mM glucose
# Procedure: In addition, the glucose-dependent insulin secretion ability of the HKFY derivative for rat islet was confirmed (FIG. 76).
# Specifically, the pancreas was extracted from a 8-week-old SD rat (Damul Science), and islets were isolated. The isolated islets were treated with HKFY-34 at different concentrations (1 nM, 10 nM, 100 nM, 1 μM, 10 μM and 100 μM) in 2.8 mM or 28 mM glucose, and then the amount of the secreted insulin was measured using a rat insulin ELISA.
structure (smiles),measurement,setting,value
"CCCCCCCC(=O)NCCCC[C@H](NC(=O)[C@@H](N)Cc1cn(C(c2ccccc2)c2ccccc2)cn1)C(=O)N[C@H](Cc1ccc(C)cc1)C(=O)N[C@@H](Cc1ccc(O)cc1)C(=O)O [HKFY-34, ((R)-2-((S)-2-((S)-2-amino-3-(1-benzhydryl-1H-imidazol-4-yl)propanamido)-6-octanamidohexanamido)-3-(p-tolyl)propanoyl)-L-tyrosine]",EC50,"GPR39; EC50, CV-1 cells, GPR39 and SRE luciferase adenovirus, treated 6 hours, luminometer",7 ± 1 nM
same,binding capacity and activity to the GPR39 receptor (in words),"GPR39; FIG. 73 and Table 4, luciferase and calcium influx assay",excellent
same,EC50,"GPR39; Reporter gene assay EC50, Table 4, luciferase assay system",6.7 ± 0.7 nM
same,ECmax value (in words),GPR39; comment on Table 3,high ECmax value
same,activity level for GPR39 (in words),GPR39; comment on Table 3,higher activity level than other HJKFY derivatives
same,activity level for GPR39 (in words),"GPR39; comment on Table 3, listed as HIKFY-34",most excellent activity
same,lipolytic ability,[1]; HKFY-34 concentration 10 μM or higher,significantly increased
same,lipolytic ability,"[1]; by concentration, FIG. 84",increased in a concentration dependent manner
same,activity for NMU2,NMU2,very low
same,activity for GHSR,GHSR,very low
same,activity for NTSR1,NTSR1,very low
same,activity for TRHR,TRHR,very low
same,activity for NMU1,NMU1,very low
same,activity for MTLR,MTLR,very low
same,activity for NTSR2,NTSR2,very low
same,expression of pERK compared to ERK,[2],increased
same,expression of pPKA compared to PKA,[2],increased
same,mRNA expression of ATGL,[3],increased to a degree similar to that of isoproterenol
same,mRNA expression of HSL,[3],increased to a degree similar to that of isoproterenol
same,mRNA expression of Perilipin A,[3],increased to a degree similar to that of isoproterenol
same,effect of drop in blood glucose level,"db/db mice; db/db mice, 0.5, 1, 5 and 10 mg/kg subcutaneously, 0 to 24 hours",exhibited in a concentration-dependent manner
same,effect of drop in blood glucose,"db/db mice; db/db mice, 5 and 10 mg/kg",significantly increased
same,mRNA expression of ATGL,[4],increased to a degree similar to that of isoproterenol
same,mRNA expression of HSL,[4],increased to a degree similar to that of isoproterenol
same,mRNA expression of Perilipin A,[4],increased to a degree similar to that of isoproterenol
same,insulin secretion ability,rat islet,concentration dependent (dose-dependent) manner
